The record followed here is publication PMC5849182, “Kallikrein-related peptidase 7 is a potential target for the treatment of pancreatic cancer” (Oncotarget, 2018).

In data set [1] the test system is KLK7. Nature of the data set: KLK7 expression in lentivirus-infected PANC-1 cells (real-time PCR and western blotting). The following applies: PANC-1 cells stably infected, compared to NC group. It is filed as cell-based, human. From the text: A scrambled shRNA sequence was used as the negative control (LV-NC-shRNA, 5′-[…]-3′). The shRNA sequences were synthesized and cloned into recombinant shRNA expression vectors (pGLV3-H1-GFP-Puro). The resulted plasmids were verified by DNA sequencing.
PANC-1 and HepG2 cell lines were obtained from the Chinese Type Culture Collection Center (Wuhan, China). PANC-1 cells were maintained in dulbecco’s modified Eagle medium supplemented with 10% fetal bovine serum, 100 units/ml penicillin G sodium, and 100 μg/ml streptomycin sulphate. HepG2 cells were maintained in RPMI 1640 medium supplemented with 10% fetal bovine serum, 100 units/ml penicillin G sodium, and 100 μg/ml streptomycin sulphate. PANC-1 and HepG2 cells pro-treated by 5 μg/ml polybrene were infected with the lentivirus and stably infected cells were selected in cell culture medium containing 4 μg/ml puromycin (Sigma-Aldrich). […]
Western blotting assay was performed with cell lysates collected from stably transfected cells. Total protein concentrations were measured with the bicinchoninic assay (BCA). The sample proteins (20μg for each lane) were analyzed first in 12% SDS-PAGE and then transferred onto polyvinylidine difuorides membranes. […] The chemiluminescent data were collected and grayscale values were evaluated with Image J.
On the technique in general: Quantitative PCR measures a nucleic acid by following its amplification.

For data set [2], the system named is HepG2 cells. In words: RTCA proliferation, migration and invasion of KLK7 silenced HepG2 cells. It is filed as cell-based. As to the method: (§1) Cell migration assay was performed on RTCA xCELLigence DP (ACEA Biosciences). […] Migration was measured as the relative cell index change measured by the microelectronic sensors integrated into the bottom side of the membrane. Measurements were recorded every 15 min for 36 h.
(§2) Cell matrigel invasion assay was similar to the cell migration assay, except that the microporous membrane between the upper and lower chambers was coated by a thin layer of matrigel (BD Biosciences). After 36 h, cells on the bottom side were fixed in cold methanol, stained with 0.4% crystal violet, and photographed (5 random fields for each sample).

Data set [3] concerns PANC-1 cells. Nature of the data set: RTCA matrigel invasion assay. The following applies: KLK7 silenced PANC-1 cells, compared to BC and NC groups. It is filed as cell-based. As to the method:
as §2
(§3) The tested compound was added into the cell culture medium 3 h after PANC-1 cells were seeded. The cell prolifiation, migration and matrigel invasion was then assayed on RTCA.

The test system of data set [4] is PANC-1 cells. Nature of the data set: RTCA cell migration assay. The class given is cell-based. The following applies: KLK7 silenced PANC-1 cells, compared to BC and NC groups. The protocol: as §1, §3

As for “5′-GCACUGAGUUAAUUAACUGUGUUUCAAGAGAACACAGUUAAUUAACUCAGUGCUU-3′ (expressed or natural sequence) [LV-hKLK7-shRNA-4, PANC-1 cells infected with it are named KD4]”, the “Decrease of KLK7 expression” value in data set [1] is “around 90%”. Besides, in data set [2], the “Effect on invasion of HepG2 cells” value is reported as “did not affect” and the “Effect on migration of HepG2 cells” value is “did not affect”. Moreover, in data set [3], the Invasion capacity result is reported as “almost fully inhibited”. Moreover, in data set [4], the “Decrease of migration rate” value is given as “about 85%”.
